In the NIST ThermoML archive (doi:10.1007/s10765-006-0100-z):

Assays:
[1] = xn = mol fraction of the nth substance listed; conditions: 101 kPa, Liquid; for mass density: Vibrating tube method
[2] = 101 kPa, Liquid; for mass density: Vibrating tube method

CCC(C)Cl (configuration not stated) [2-chlorobutane] + C1CCOCC1
[1]
Conditions	kinematic viscosity, 298.15 K [m2/s]	kinematic viscosity, 313.15 K [m2/s]	mass density, 298.15 K [kg/m3]	mass density, 313.15 K [kg/m3]
x2 = 0	4.54e-07	3.96e-07	867.37	850.13
x2 = 0.0525	–	–	868.05	–
x2 = 0.0605	4.66e-07	4.09e-07	–	851.11
x2 = 0.1035	–	–	869.06	–
x2 = 0.1166	4.8e-07	4.22e-07	–	852.02
x2 = 0.1947	–	–	870.26	–
x2 = 0.2131	5.08e-07	4.45e-07	–	853.59
x2 = 0.3042	–	–	871.8	–
x2 = 0.3174	5.42e-07	4.72e-07	–	855.4
x2 = 0.4088	5.75e-07	4.97e-07	–	857
x2 = 0.4091	–	–	872.95	–
x2 = 0.4994	6.11e-07	5.25e-07	–	858.35
x2 = 0.5025	–	–	874.28	–
x2 = 0.5947	–	–	875.42	–
x2 = 0.6122	6.62e-07	5.66e-07	–	859.58
x2 = 0.7108	7.14e-07	6.06e-07	–	861.03
x2 = 0.7116	–	–	876.72	–
x2 = 0.8059	7.69e-07	6.49e-07	–	862.1
x2 = 0.809	–	–	877.46	–
x2 = 0.8917	–	–	878.36	–
x2 = 0.9023	8.34e-07	6.97e-07	–	862.9
x2 = 0.9549	8.73e-07	7.28e-07	–	863.45
x2 = 0.9599	–	–	878.55	–

CCCCCl [1-chlorobutane]
[2]
Conditions	kinematic viscosity [m2/s]	mass density [kg/m3]
298.15 K	4.78e-07	880.69
313.15 K	4.21e-07	863.82

CCC(C)Cl (configuration not stated) [2-chlorobutane]
[2]
Conditions	kinematic viscosity [m2/s]	mass density [kg/m3]
298.15 K	4.54e-07	867.37
313.15 K	3.96e-07	850.13

C1CCOCC1 [tetrahydropyran] + CC(C)CCl
[1], x1 = 1
Conditions	kinematic viscosity [m2/s]	mass density [kg/m3]
298.15 K	9.1e-07	878.81
313.15 K	7.57e-07	863.67

C1CCOCC1 [tetrahydropyran] + CCCCCl
[1], x1 = 1
Conditions	kinematic viscosity [m2/s]	mass density [kg/m3]
298.15 K	9.1e-07	878.81
313.15 K	7.57e-07	863.67

CC(C)(C)Cl [2-chloro-2-methylpropane]
[2]
Conditions	kinematic viscosity [m2/s]	mass density [kg/m3]
298.15 K	5.68e-07	836.45
313.15 K	4.77e-07	818.31

CC(C)CCl [1-chloro-2-methylpropane]
[2]
Conditions	kinematic viscosity [m2/s]	mass density [kg/m3]
298.15 K	4.93e-07	871.13
313.15 K	4.29e-07	853.51

CC(C)(C)Cl [2-chloro-2-methylpropane] + C1CCOCC1
[1]
Conditions	kinematic viscosity [m2/s]	mass density [kg/m3]
298.15 K, x2 = 0	5.68e-07	836.45
298.15 K, x2 = 0.0324	–	838.08
298.15 K, x2 = 0.0614	5.84e-07	–
298.15 K, x2 = 0.1075	5.96e-07	–
298.15 K, x2 = 0.1086	–	842.07
298.15 K, x2 = 0.2097	–	847.11
298.15 K, x2 = 0.2173	6.27e-07	–
298.15 K, x2 = 0.2891	–	851.05
298.15 K, x2 = 0.3205	6.57e-07	–
298.15 K, x2 = 0.42	6.88e-07	–
298.15 K, x2 = 0.4276	–	857.41
298.15 K, x2 = 0.496	–	860.32
298.15 K, x2 = 0.5176	7.2e-07	–
298.15 K, x2 = 0.6107	–	864.98
298.15 K, x2 = 0.6155	7.54e-07	–
298.15 K, x2 = 0.6483	–	866.46
298.15 K, x2 = 0.7156	7.91e-07	–
298.15 K, x2 = 0.8093	–	872.39
298.15 K, x2 = 0.8277	8.35e-07	–
298.15 K, x2 = 0.8606	–	874.22
298.15 K, x2 = 0.9097	8.7e-07	–
298.15 K, x2 = 0.954	–	877.25
298.15 K, x2 = 0.9547	8.89e-07	–
313.15 K, x2 = 0	4.77e-07	818.31
313.15 K, x2 = 0.0451	4.87e-07	–
313.15 K, x2 = 0.0584	–	821.7
313.15 K, x2 = 0.0875	–	823.35
313.15 K, x2 = 0.0887	4.97e-07	–
313.15 K, x2 = 0.1943	–	829.15
313.15 K, x2 = 0.1978	5.21e-07	–
313.15 K, x2 = 0.3028	–	834.83
313.15 K, x2 = 0.3053	5.47e-07	–
313.15 K, x2 = 0.3972	5.7e-07	–
313.15 K, x2 = 0.4249	–	840.83
313.15 K, x2 = 0.4929	–	843.99
313.15 K, x2 = 0.5024	5.98e-07	–
313.15 K, x2 = 0.6093	–	849.16
313.15 K, x2 = 0.6359	6.36e-07	–
313.15 K, x2 = 0.7052	–	853.15
313.15 K, x2 = 0.7056	6.57e-07	–
313.15 K, x2 = 0.796	6.86e-07	–
313.15 K, x2 = 0.7988	–	856.89
313.15 K, x2 = 0.9063	7.23e-07	–
313.15 K, x2 = 0.9097	–	860.95
313.15 K, x2 = 0.9526	7.4e-07	–
313.15 K, x2 = 0.9614	–	862.64

C1CCOCC1 [tetrahydropyran] + CCC(C)Cl
[1], x1 = 1
Conditions	kinematic viscosity [m2/s]	mass density [kg/m3]
298.15 K	9.1e-07	878.81
313.15 K	7.57e-07	863.67

C1CCOCC1 [tetrahydropyran] + CC(C)(C)Cl
[1], x1 = 1
Conditions	kinematic viscosity [m2/s]	mass density [kg/m3]
298.15 K	9.1e-07	878.81
313.15 K	7.57e-07	863.67

C1CCOCC1 [tetrahydropyran]
[2]
Conditions	kinematic viscosity [m2/s]	mass density [kg/m3]
298.15 K	9.1e-07	878.81
313.15 K	7.57e-07	863.67
